Measured values reported in patent publication US7572831B2, “Composition containing chalcone” (Angiolab, Inc., priority 2002, dated 2009).

Assays:
[1] = target: T1, MMP-2 (Homo sapiens, UniProt P08253); test: MMP-2 spectrofluorometric enzyme activity assay; type: biochemical; settings: 50 μM compound
T1 construct: made in house; host or cells: Sf21 insect cells, baculovirus (pBlueBac4.5)
T1 sequence (P08253 110-660): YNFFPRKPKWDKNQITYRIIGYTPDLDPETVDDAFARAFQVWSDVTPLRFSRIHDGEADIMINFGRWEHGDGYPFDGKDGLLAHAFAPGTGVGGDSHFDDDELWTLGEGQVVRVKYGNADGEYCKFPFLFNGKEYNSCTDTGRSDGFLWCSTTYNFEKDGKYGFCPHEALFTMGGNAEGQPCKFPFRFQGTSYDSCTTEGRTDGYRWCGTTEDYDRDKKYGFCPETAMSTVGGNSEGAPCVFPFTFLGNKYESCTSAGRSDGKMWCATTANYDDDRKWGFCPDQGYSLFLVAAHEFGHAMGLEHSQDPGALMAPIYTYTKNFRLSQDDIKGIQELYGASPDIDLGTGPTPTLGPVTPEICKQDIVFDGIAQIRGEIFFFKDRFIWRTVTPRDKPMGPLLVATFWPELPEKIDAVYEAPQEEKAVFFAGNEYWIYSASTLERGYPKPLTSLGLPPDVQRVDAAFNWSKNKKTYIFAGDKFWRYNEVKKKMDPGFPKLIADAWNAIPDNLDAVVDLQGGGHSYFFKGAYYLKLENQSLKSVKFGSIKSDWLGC
Procedure: (§1) MMP-1, MMP-2, MMP-9 and MMP-13 were cloned and prepared from insect cells (Sf21 insect cell) by using a Baculovirus system.
(§2) Each cDNA for corresponding MMPs was cloned to a pBlueBac4.5 transfer vector (Invitrogen, Cat no. V1995-20), and then transfected to Sf21 cells with a Bac-N-Blue Transfection Kit (Invitrogen, Cat no. K855-01). Sf21 cells were incubated with a TNM-FH (Sigma, St. Louis, Mo., U.S.A) media containing 10% fetal bovine serum at 27° C., then harvested and re-suspended at a concentration of 10^7 cell/Ml. The cell suspension was incubated with a virus containing the cloned gene for 1 hr at room temperature. Infected Sf21 cells were grown for 72 hrs and the medium was recovered, and the MMP was purified. MMP-2 (GENEBANK No. XM—048244) and MMP-9 (GENEBANK No. XM—009491) were recovered from a gelatin-sepharose affinity column (Sigma, G5384) by eluting with 5% DMSO-containing buffer. MMP-1 (GENEBANK NO. XM—040735) and MMP-13 (GENEBANK NO. NM_002427) were purified with SP-sepharose column (Pharmacia, 17-02729-01) chromatography.
(§3) In order to investigate MMP inhibition by chalcone or its derivatives, MMP enzyme activity was assayed by a spectrofluorometric method using Perkin-Elmer LS50B.
(§4) Purified MMP-1, MMP-2, MMP-9 and MMP-13 were used after activation with 1 mM APMA before assay.
(§5) The substrate for MMP-1 was 2,4-dinitrophenyl-Pro-Leu-Ala-Leu-Trp-Ala-Arg-OH (Calbiochem). 2,4-dinitrophenyl-Pro-Leu-Met-Trp-Ser-Arg-OH (Calbiochem) was used for MMP-2 and MMP-9 activity assay. As a substrate for MMP-13, MCA-Pro-Cha-Gly-Nva-His-Ala-Dpa-NH2 (Calbiochem) was used [MCA=methyl coumarylamide; Cha=L-cyclohexylalanine; Nva=L-norvaline; Dpa=3-(2,4-dinitrophenyl)-L-2,3-diaminoproprionic acid].
(§6) As a control, 2 Ml of reaction buffer (50 mM Tricine, pH 7.5, 10 mM CaCl2, 200 mM NaCl) comprising DMSO, 10 nM of enzyme and 10 μM of substrate was prepared in a cuvette. Fluorescence intensity was measured for 5-10 min at room temperature with a spectrofluorometer.
(§7) 50 μM Chalcone or its derivatives were added to a reaction buffer containing a substrate and enzyme, and fluorescence intensity was measured in the same manner.

[2] = target: T2, MMP-13 (Homo sapiens, UniProt P45452); test: MMP-13 spectrofluorometric enzyme activity assay; type: biochemical; settings: 50 μM compound
T2 construct: made in house; host or cells: Sf21 insect cells, baculovirus (pBlueBac4.5)
Procedure: as §1, §2, §3, §4, §5, §6, §7

[3] = test system: TPA-induced ear edema; test: TPA-induced ear edema model; type: in vivo, ICR mouse; settings: topical 5% in acetone (indomethacin 0.5 mg/ear), 4 hours after TPA; for Δ Ear thickness (um ± S.D): TPA control 176 ± 35
Procedure: To observe the anti-inflammatory effects of chalcone or its derivatives edema was induced in the ear by topical application of 10 ul of TPA (Tetradecanoylphorbol acetate) in acetone (2.5 ug/ear) to both the inner and outer surface of one ear of each 6-week-old ICR mouse. 5% of Chalcone or its derivatives diluted with acetone were applied separately to each ear topically immediately after TPA. The reference drug, indomethacin (0.5 mg/ear), was administered as a positive control. Ear thickness was measured before and 4 hours after treatment with the irritant using a micrometer (Mitutoyo Co.). Ear thickness was expressed as the mean of the difference between thickness before and after challenge. Inhibition ratio percentage of edema was expressed as the reduction in thickness with respect to the control treated only with TPA. As shown in FIG. 6 and Table 2, chalcone or its derivatives suppressed the TPA-induced ear edema.

[4] = test system: human umbilical vein endothelial cells (HUVECs); test: Tube formation of HUVEC on Matrigel; type: cell-based; settings: 50 μM, 8-16 hrs
Text: The effect of chalcone or its derivatives on human endothelial cells was investigated to evaluate the biological effect of chalcones as MMP inhibitors. Since MMPs are responsible for the degradation of extracellular matrix, chalcone or its derivatives can inhibit the formation of tubular network of vessel, which represent migration and differentiation of endothelial cell. Blood vessel endothelial cells, human umbilical vein endothelial cells (HUVECs), were isolated from freshly obtained cords after cesarean section according to Grants' method (Grants D. S., et al., Cell, 58, pp933-943, 1989). They were identified by immunocytochemical staining with anti-Factor VIII antibody. HUVECs cultured on Matrigel (BD Bioscience, Bedford, Mass., USA) were treated with 50 μM of chalcone or its derivatives, and further incubated at 37° C. for 8-16 hrs. As a control, the procedure was repeated with the solvent of the above compounds.

Row | SMILES | MMP-2 inhibition (% inhibition) [1] | MMP-13 inhibition (% inhibition) [2] | Inhibition ratio (%) of ear edema [3] | Δ Ear thickness (um ± S.D) [3] | Tubular (microvascular) network formation of HUVEC [4]
1 | O=C(CCc1ccc(O)cc1)c1c(O)cc(O)cc1O [Phloretin] | 87.2 % inhibition | 77.0 % inhibition | – | – | –
2 | COc1ccc(C=CC(=O)c2ccccc2)cc1 [4-methoxy chalcone, 4-methoxychalcone (1-phenyl-3-(4-methoxyphenyl)prophenone)] | 92.7 % inhibition | 83.9 % inhibition | 56.2% | 77 ± 19 um | –
3 | O=C(C=Cc1ccc(O)cc1)c1ccccc1 [4-hydroxy chalcone, 4-hydroxychalcone (1-phenyl-3-(4-hydroxyphenyl)prophenone)] | 95.9 % inhibition | 94.5 % inhibition | – | – | –
4 | COc1ccc(C(=O)C=Cc2ccccc2)c(OC)c1 [2′,4′-dimethoxy chalcone, 2′,4′-dimethoxychalcone (1-(2,4-dimethoxyphenyl)-3-phenylprophenone)] | 92.5 % inhibition | 83.4 % inhibition | – | – | –
5 | COc1ccc(C(=O)C=Cc2ccccc2)cc1 [4′-methoxy chalcone, 4′-methoxychalcone (1-(4-methoxyphenyl)-3-phenylprophenone)] | 99.1 % inhibition | 86.8 % inhibition | 40.9% | 104 ± 21 um | microvascular network was disconnected
6 | O=C(C=Cc1ccccc1O)c1ccccc1 [2-hydroxy chalcone, 2-hydroxychalcone (1-phenyl-3-(2-hydroxyphenyl)prophenone)] | 90.4 % inhibition | 89.9 % inhibition | 58.0% | 74 ± 20 um | –
7 | COc1ccc2c(c1)c(CC(=O)O)c(C)n2C(=O)c1ccc(Cl)cc1 [Indomethacin, reference compound] | – | – | 72.7% | 48 ± 25 um | –
